Values of other authors as cited in patent US20110295365A1, “Anti-viral compositions and methods for administration” (Searete LLC, a limited liability corporation of the State …, priority 2010, published 2011).

Tests used:
[1] = in vivo

Q: For `O=C[C@@H](O)[C@@H](O)[C@H](O)[C@H](O)COP(=O)(O)O` [mannose 6-phosphate], which “inhibition of viral entry” value (varicella zoster virus) is on record?
A: inhibition of viral entry

Q: Which “passage across the placenta from mother to child” value [1] does the source give for enfuvirtide here?
A: do not efficiently pass from mother to child

Q: Which “inhibition of viral entry” value (varicella zoster virus) does the source give for heparin here?
A: inhibition of viral entry
